From patent publication US10098830B2, “Oral care compositions” (BASF SE, priority 2014, dated 2018)
Read-outs that look alike come from different tables or passages of the source.

Tests used:
[1] = tested on: S. mutans 25175 biofilm; assay: Prevention of Streptococcus mutans biofilm development on hydroxy apatite pegs (Bac-titer-Glo); type: cell-based; conditions: 2% xylitol
Experimental: Prevention of Biofilm Development S. mutans Biofilms: S. mutans 25175 is inoculated into 10 mL BHI and incubated statically at 37° C. overnight. […] Hydroxy apatite coated peg lids are pellicle treated with sterile artificial saliva 200 ul/per well of a 96 well clear plate for 30 minutes at 37° C. aerobic. […] Test solutions are added to a desired final concentration and water is added to bring the final volume to 200 ul. […] Polymers are evaluated using the biofilm prevention method indicated above for both S. mutans and multispecies saliva derived biofilm.

[2] = tested on: multispecies saliva biofilm; assay: Prevention of multispecies saliva biofilm development on hydroxy apatite pegs (Bac-titer-Glo); type: cell-based, pooled human saliva; conditions: 2% xylitol
Experimental: Prevention of Biofilm Development Multispecies Saliva Biofilms: Hydroxy apatite (HA) coated surfaces of a 96 peg lid (Biosurface Technologies, Boseman, Mont.) are pellicle treated with pooled human saliva 200 μl/per well of a 96 well clear plate for 30 minutes at 37° C. aerobically. Into each well of the growth plate, clear 96 well plate, 160 μl inoculated Brain Heart Infusion (BHI) broth is added. Test solutions are added to a desired final concentration and water is added to bring the final volume to 200 μl. The hydroxyl apatite coated pegs are added to. […] Polymers are evaluated using the biofilm prevention method indicated above for both S. mutans and multispecies saliva derived biofilm.

[3] = tested on: S. mutans (ATCC #25175); assay: Inhibition of bacterial acid production (Bromo Cresol Purple broth, OD 588 / OD 427); type: cell-based, Streptococcus mutans
Experimental: Method to observe the acid production of S. mutans in a medium containing a pH indicator and glucose. Observe how xylitol and the example polymers affect acid production. A culture of S. mutans (ATCC #25175) is grown statically overnight in 10 mL liquid broth (BHI) at 37° C. […] The no treatment control has 20 ul water added. To each experimental well 180 of the inoculated BCP broth is added. To the no inoculum control 20 ul water and 20 ul filter sterilized overnight culture broth are added. […] Both wavelengths are measured every hour for several hours but before evaporation became an issue. The plates are shaken for 10 seconds before reading.

[4] = tested on: 48 hour saliva biofilms; assay: Disruption of established 48 hour saliva biofilms; type: cell-based, pooled human saliva; conditions: for Disruption of 48 hour saliva biofilms after treatment for 5 minutes: Chelate control: 0.1% Trilon Ca
Experimental: Method to screen combinations of actives, example polymers and chelates to identify potential synergies for biofilm disruption.
Polystyrene Pegs are pellicle treated with fresh pooled human saliva for 30 minutes at 37° C. aerobically. Saliva is inoculated into BHI broth at a final concentration of 10% saliva. 200 ul of inoculated or uninoculated media is added to each well. The pegs are added to the growth media and incubated anaerobically 37° C.
At 24 hr. the pegs are removed and transferred to a fresh plate containing 200 ul of sterile BHI. And incubated anaerobically for another 24 hr at 37 C.
After 48 hr of growth time, pegs containing the biofilms are transferred to a 96 well rinse plate containing 200 ul of or BHI. Following a 5 minute rinse at room temperature, the pegs are transferred to a treatment plate containing combinations of actives, chelate and polymers. This is followed a 5 minute treatment (shaking at 500 rpm). The treated pegs are transferred to a white 96 well plate containing 200 ul Bac-titer-Glo reagent—this is incubated at room temperature for 5 minutes (shaking) and read on a plate reader for luminescence.
Polymers are evaluated using the Biofilm disruption model as described above.
Example polymers (xylitol-EDTA polymer and xylitol-arginine-succinic acid polymer) are combined with example actives (epsilon-polylysine and chlorhexidine) and a chelator (Ca EDTA).

[5] = tested on: multispecies saliva derived biofilm; assay: Substantivity: multispecies saliva derived biofilm growth after 24 hr on pre-treated hydroxyl apatite surfaces; type: cell-based, human saliva; conditions: for % decrease in biofilm as compared to growth control (negative indicates increased biofilm): saliva biofilm, 24 hr, pre-treated surface
Experimental: Method to evaluate the substantivity of polymers to hydroxyl apatite surfaces and the effects these polymers have on the growth of Streptococcus mutans and Saliva derived biofilms. For Multispecies Saliva Biofilms: Hydroxy apatite (HA) coated surfaces are pellicle treated with pooled human saliva 200 ul/per well of a 96 well clear plate for 30 minutes at 37° C. aerobically. […] The peg lids are transferred to a clear 96 well plate containing 200 ul of the designated treatments below in Jordan's with 5% sucrose. […] After 30 mins of treatment the two pegs are transferred to a 96 well plate containing 200 ul of water and it is rinsed for 10 min at 500 rpm. […] After incubation the peg lids are transferred to a rinse plate containing 200 ul of water for 5 minutes and then transferred to white 96 well plate containing 200 ul Bac-titer-Glo, this is shaken for 5 minutes and read for luminescence.

[6] = tested on: S. mutans (ATCC #25175) biofilm; assay: Substantivity: Streptococcus mutans biofilm growth after 24 hr on pre-treated hydroxyapatite surfaces; type: cell-based; conditions: pre-treated surface
Experimental: Method to evaluate the substantivity of polymers to hydroxyl apatite surfaces and the effects these polymers have on the growth of Streptococcus mutans and Saliva derived biofilms. For S. mutans Biofilms: S. mutans (ATCC #25175) is inoculated into 10 mL BHI and incubated statically at 37° C. overnight. […] Hydroxy apatite coated peg lids are pellicle treated with sterile artificial saliva 200 ul/per well of a 96 well clear plate for 30 minutes at 37° C. aerobic. The peg lids are transferred to a clear 96 well plate containing 200 ul of the designated treatments below in Jordan's with 5% sucrose. […] After 30 mins of treatment the two pegs are transferred to a 96 well plate containing 200 ul of water and it is rinsed for 10 min at 500 rpm. […] After incubation the peg lids are transferred to a rinse plate containing 200 ul of water for 5 minutes and then transferred to white 96 well plate containing 200 ul Bac-titer-Glo, this is shaken for 5 minutes and read for luminescence. Results: Polymers are evaluated using the substantivity for biofilm prevention method indicated above for both S. mutans and multispecies saliva derived biofilms.

[7] = tested on: porcine esterase; assay: Enzymatic degradation of xylitol polymer by esterase (pH change); type: in vitro ADME
Experimental: The method for determining enzymatic breakdown of polymer is determined by Sigma Quality Control Test Procedure: Enzymatic Assay of Esterase. This assay however, exchanges Ethyl Butyrate solution with solution of test polymer. pH change is monitored over time as an indicator of esterase activity and polymer degradation.
Degradation of example polymers is conducted using porcine esterase. Esterase activity decreases the pH of the solution. The pH is monitored at the start and end of the assay (90 minutes).

OC[C@@H](O)[C@H](O)[C@@H](O)CO [Xylitol]
percent reduction from the untreated control [1]: −1% | percent reduction from the untreated control [2]: 17% | effect on acid production of S. mutans (change of OD 588 / OD 427, pH), in words [3]: acid inhibition at all concentrations tested

[H]/N=C(\N/C(=N/[H])NCCCCCCNC(=N)NC(=N)Nc1ccc(Cl)cc1)Nc1ccc(Cl)cc1 [Chlorhexidine, chlorhexidine]
Disruption of 48 hour saliva biofilms after treatment for 5 minutes: Active control ([4]; 0.06% Chlorhexidine): −10^

O=C(O)CCC(=O)O [succinic acid]
effect on acid production of S. mutans (change of OD 588 / OD 427, pH), in words [3]: no or little change

CCCCCCCCCCCCCCCC[n+]1ccccc1 [Cetylpyridinium chloride]
% decrease in biofilm as compared to growth control (negative indicates increased biofilm) ([5]; % treatment 0.070%): 98% | % decrease in biofilm as compared to growth control (negative indicates increased biofilm) ([6]; % treatment 0.070%): 100%

O=C([O-])CN(CCN(CC(=O)[O-])CC(=O)[O-])CC(=O)[O-].[Ca+2].[Na+].[Na+] [Trilon Ca]
Disruption of 48 hour saliva biofilms after treatment for 5 minutes: Chelate control ([4]; Chlorhexidine / Xylitol-EDTA polymer series): −1 | Disruption of 48 hour saliva biofilms after treatment for 5 minutes: Chelate control ([4]; e-polylysine / Arginine-Xylitol-Succinic Acid Terpolymer series): −10

Xylitol-Carboxymethyl Cellulose Polymer
End pH [7]: 7.47 | Start pH [7]: 8.37 | degradation by esterase, in words [7]: degraded by the esterase

CCOC(C)=O [Ethyl Acetate]
End pH ([7]; 0.2% (positive control), porcine esterase, end of the assay (90 minutes)): 5.00 | Start pH ([7]; 0.2% (positive control), porcine esterase, start of assay): 8.30

O=C(O)CC(O)(CC(=O)O)C(=O)O [citric acid]
effect on acid production of S. mutans (change of OD 588 / OD 427, pH), in words [3]: no or little change

N=C(N)NCCC[C@H](N)C(=O)O [L-Arginine]
% decrease in biofilm as compared to growth control (negative indicates increased biofilm) ([5]; % treatment 0.070%): −28% | % decrease in biofilm as compared to growth control (negative indicates increased biofilm) ([5]; % treatment 0.140%): −20% | % decrease in biofilm as compared to growth control (negative indicates increased biofilm) ([5]; % treatment 0.280%): −24% | % decrease in biofilm as compared to growth control (negative indicates increased biofilm) ([5]; % treatment 0.560%): −22% | % decrease in biofilm as compared to growth control (negative indicates increased biofilm) ([5]; % treatment 1.120%): 49% | % decrease in biofilm as compared to growth control (negative indicates increased biofilm) ([6]; % treatment 0.070%): −40% | % decrease in biofilm as compared to growth control (negative indicates increased biofilm) ([6]; % treatment 0.140%): −18% | % decrease in biofilm as compared to growth control (negative indicates increased biofilm) ([6]; % treatment 0.280%): −59% | % decrease in biofilm as compared to growth control (negative indicates increased biofilm) ([6]; % treatment 0.560%): −53% | % decrease in biofilm as compared to growth control (negative indicates increased biofilm) ([6]; % treatment 1.120%): −29% | effect on acid production of S. mutans (change of OD 588 / OD 427, pH), in words [3]: no acid inhibiting effects

O=C(O)CN(CCN(CC(=O)O)CC(=O)O)CC(=O)O [EDTA, ethylenediaminetetraacetic acid]
substantivity (retention of biofilm prevention activity after rinsing), in words ([5]; observations consistent for both S. mutans and saliva biofilms): also substantive | % decrease in biofilm as compared to growth control (negative indicates increased biofilm) ([5]; % treatment 0.083%): 17% | % decrease in biofilm as compared to growth control (negative indicates increased biofilm) ([5]; % treatment 0.165%): 25% | % decrease in biofilm as compared to growth control (negative indicates increased biofilm) ([5]; % treatment 0.330%): 32% | % decrease in biofilm as compared to growth control (negative indicates increased biofilm) ([5]; % treatment 0.660%): 60% | % decrease in biofilm as compared to growth control (negative indicates increased biofilm) ([5]; % treatment 1.320%): 79% | % decrease in biofilm as compared to growth control (negative indicates increased biofilm) ([6]; % treatment 0.083%): 13% | % decrease in biofilm as compared to growth control (negative indicates increased biofilm) ([6]; % treatment 0.165%): 37% | % decrease in biofilm as compared to growth control (negative indicates increased biofilm) ([6]; % treatment 0.330%): 44% | % decrease in biofilm as compared to growth control (negative indicates increased biofilm) ([6]; % treatment 0.660%): 46% | % decrease in biofilm as compared to growth control (negative indicates increased biofilm) ([6]; % treatment 1.320%): 41% | effect on acid production of S. mutans (change of OD 588 / OD 427, pH), in words [3]: no or little change
